# Reference: paper PMC3116189, “Novel Natural Inhibitors of CYP1A2 Identified by in Silico and in Vitro Screening” (International Journal of Molecular Sciences, 2011)
# Counter-ions that a name gives are not always drawn.
# Biological target: T1, CYP1A2 (Homo sapiens, UniProt P05177)
# T1 sequence (P05177 1-516): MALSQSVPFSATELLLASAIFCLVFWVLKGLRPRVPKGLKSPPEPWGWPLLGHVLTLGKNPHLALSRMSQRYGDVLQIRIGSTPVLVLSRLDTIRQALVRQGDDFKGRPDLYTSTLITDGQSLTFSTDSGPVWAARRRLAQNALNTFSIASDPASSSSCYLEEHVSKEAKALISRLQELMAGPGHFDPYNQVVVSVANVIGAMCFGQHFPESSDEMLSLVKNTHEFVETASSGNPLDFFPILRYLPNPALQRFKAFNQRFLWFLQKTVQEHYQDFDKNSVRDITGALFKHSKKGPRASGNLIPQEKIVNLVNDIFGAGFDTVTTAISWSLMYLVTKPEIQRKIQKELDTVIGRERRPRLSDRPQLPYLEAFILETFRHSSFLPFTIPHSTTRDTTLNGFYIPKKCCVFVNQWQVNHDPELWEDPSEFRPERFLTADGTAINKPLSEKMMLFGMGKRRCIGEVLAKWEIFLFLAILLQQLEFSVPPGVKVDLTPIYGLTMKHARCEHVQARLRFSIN
# Assay: in vitro
# Assay type: biochemical
# Conditions: 1 μM active ingredient, Rh CYP1A2-mediated phenacetin O-deethylation, test dataset of 202 herb ingredients
# 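Also: recombinant CYP1A2 incubated for 1 h at 37 °C, with the reaction started by an NADPH-generating system.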
row,SMILES,% of Control Indication Activity (Mean)
1,COc1c2c(cc3oc(C)cc(=O)c13)OC(C(C)(C)O[C@@H]1O[C@H](CO)[C@@H](O)[C@H](O)[C@H]1O)C2 (stereo partly drawn) [5-O-Methylvisammioside],> 90%
2,Oc1cc(O)c2c(c1)O[C@H](c1ccc(O)c(O)c1)[C@@H](O)C2 [(+)-Catechin],> 90%
3,C=C1C(=O)O[C@@H]2C[C@@]3(C)CCC[C@H](C)C3=C[C@H]12 [Alantolactone],> 90%
4,O=C1CCC[C@@H]2[C@H]3CCC[N@+]4([O-])CCC[C@@H](CN12)[C@@H]34 [Ammothamnine],> 90%
5,CC(=O)O[C@H]1C[C@]2(O)[C@@H]3CC[C@@H]4C[C@@H](O)CC[C@]4(C)[C@H]3CC[C@]2(C)[C@H]1c1ccc(=O)oc1 [Bufatalin],> 90%
6,CCOC(=O)/C=C/c1ccc(O)c(O)c1 [Caffeic acid ethyl ester],> 90%
7,COc1cc(O)cc(O)c1C(=O)/C=C/c1ccccc1 [Cardamonin],> 90%
8,COc1cc2c(c(OC)c1OC)-c1c(cc(OC)c(OC)c1OC)C[C@H](C)[C@H](C)C2 [Deoxyschizandrin],> 90%
9,COc1cc(/C=C/C(=O)O)ccc1O [Ferulic acid],> 90%
10,COc1ccc([C@H]2OC[C@H]3[C@@H]2CO[C@H]3c2ccc(O[C@@H]3O[C@H](CO)[C@@H](O)[C@H](O)[C@H]3O)c(OC)c2)cc1OC [Forsythin],> 90%

# Same assay, conditions: human, recombinant enzyme, pH 7.4
row,SMILES,"activity at 1 h, 1 μM"
1,"O=Cc1ccc(O)c(O)c1 [3,4-Dihydroxybenzaldehyde]",> 90%
2,O=C1c2cccc(O)c2C(=O)c2c(O)cc(CO)cc21 [Aloe-emodin],> 90%
3,O=c1cc(-c2ccccc2)oc2cc(O)c(O)c(O)c12 [Baicalein],> 90%
4,O=C(O)[C@H]1O[C@@H](Oc2cc3oc(-c4ccccc4)cc(=O)c3c(O)c2O)[C@H](O)[C@@H](O)[C@@H]1O [Baicalin],> 90%
5,O=c1cc(-c2ccccc2)oc2cc(O)cc(O)c12 [Chrysin],4.6%
6,Cc1cc(O)c2c(c1)C(=O)c1cccc(O)c1C2=O [Chrysophanol],77.7%
7,O=C/C=C/c1ccccc1 [Cinnamaldehyde],> 90%
8,O=C(O)/C=C/c1ccccc1 [Cinnamic acid],> 90%
9,O=c1c(-c2ccc(O)cc2)coc2cc(O)ccc12 [Daidzein],> 90%
10,C=C1CC[C@H]2C(=C)CC[C@H]3C(=C)C(=O)O[C@@H]3[C@@H]12 [Dehydrocostus lactone],> 90%
11,Cc1cc(O)c2c(c1)C(=O)c1cc(O)cc(O)c1C2=O [Emodin],> 90%
12,O=c1ccc2cc(O)c(O)cc2o1 [Esculetin],> 90%
13,O=C(O)c1cc(O)c(O)c(O)c1 [Gallic acid],> 90%

# Same assay, conditions: human, recombinant enzyme, pH 7.4; 1 μM active ingredient, Rh CYP1A2-mediated phenacetin O-deethylation, test dataset of 202 herb ingredients; read-out: % of Control Indication Activity (Mean)
row,SMILES,"activity at 1 h, 1 μM"
1,C=CCc1ccc(O)c(OC)c1 [Eugenol],> 90%
2,COc1ccc2cc1Oc1ccc(cc1)C[C@H]1c3cc(c(OC)cc3CCN1C)Oc1c(O)c(OC)cc3c1[C@H](C2)N(C)CC3 [Fangchinoline],> 90%

# Same assay, conditions: human, recombinant human CYP1A2, pH 7.4, probe phenacetin (25 μM), O-deethylation to acetaminophen; 1 μM active ingredient, Rh CYP1A2-mediated phenacetin O-deethylation, test dataset of 202 herb ingredients; read-out: % of Control Indication Activity (Mean)
row,SMILES,"activity at 1 h, 1 μM"
1,COc1ccc(C=O)c(O)c1 [4-Methoxysalicylaldehyde],> 90%
2,O=Cc1ccc(CO)o1 [5-Hydroxymethylfurfural],> 90%
3,Oc1cc(O)c2c(c1)O[C@H](c1ccc(O)c(O)c1)[C@H](O)C2 [(−)-Epicatechin],> 90%
4,COc1cc(O)cc2c1C(=O)C[C@@H](c1ccccc1)O2 [Alpinetin],> 90%
5,C=C1CC[C@@H]2[C@](C)(CO)[C@H](O)CC[C@@]2(C)[C@@H]1C/C=C1/C(=O)OC[C@H]1O [Andrographolide],> 90%
6,COc1ccc(C[C@H]2COC(=O)[C@@H]2Cc2ccc(O[C@@H]3O[C@H](CO)[C@@H](O)[C@H](O)[C@H]3O)c(OC)c2)cc1OC [Arctiin],> 90%
7,O=C1c2c(O)cccc2C([C@@H]2O[C@H](CO)[C@@H](O)[C@H](O)[C@H]2O)c2cc(CO)cc(O)c21 (stereo partly drawn) [Bar baloin],> 90%
8,COc1ccc2cc3[n+](cc2c1OC)CCc1cc2c(cc1-3)OCO2 [Berberine Hydrochloride],> 90%
9,COc1c(O)cc2c(c1O)[C@@H]1O[C@H](CO)[C@@H](O)[C@H](O)[C@H]1OC2=O [Bergenin],> 90%
10,C[N+](C)(C)CC(=O)O [Betaine],> 90%
11,CC(=O)OC1CC2CCC1(C)C2(C)C (stereo not drawn) [Bornylacetate],> 90%
12,O=C(O)/C=C/c1ccc(O)c(O)c1 [Caffeic acid],> 90%
13,Cc1ccc(C(C)C)cc1O [Carvacrol],> 90%
14,OC[C@H]1O[C@@H](O[C@@H]2OC=C[C@H]3[C@H](O)[C@@H]4O[C@]4(CO)[C@@H]23)[C@H](O)[C@@H](O)[C@@H]1O [Catalpo l],> 90%
15,O=C(/C=C/c1ccc(O)c(O)c1)O[C@@H]1C[C@](O)(C(=O)O)C[C@@H](O)[C@H]1O [Chlorogenic acid],> 90%
16,C=C1C(=O)O[C@@H]2/C=C(\C)CC/C=C(\C)CC[C@@H]12 [Costunolide],> 90%
17,COc1cc(/C=C/C(=O)CC(=O)/C=C/c2ccc(O)c(OC)c2)ccc1O [Curcumin],> 90%
18,COc1c2ccc(-c3ccccc3)oc-2cc(=O)c1C [Dracorhodin],21.1%
19,CC12CCC(CC1)C(C)(C)O2 [Eucalyptol],> 90%
20,COc1ccc(-c2coc3cc(O)ccc3c2=O)cc1 [Formononetin],> 90%
21,COc1cc2ccc(=O)oc2c(O)c1O [Fraxetin],> 90%
22,CC1=C2C(=O)O[C@@H](c3ccoc3)[C@]2(C)CCC1 [Fraxinellone],> 90%
23,CC(C)=CCC[C@](C)(O[C@@H]1O[C@H](CO)[C@@H](O)[C@H](O)[C@H]1O)[C@H]1CC[C@]2(C)[C@@H]1[C@H](O)C[C@@H]1[C@@]3(C)CC[C@H](O)C(C)(C)[C@@H]3[C@@H](O)C[C@]12C [Ginsenoside F1],> 90%

# Same assay, conditions: human, recombinant human CYP1A2, pH 7.4, probe phenacetin (25 μM), O-deethylation to acetaminophen; 1 μM test compound, 25 μM phenacetin, average of duplicate determinations; read-out: % of Control Indication Activity
row,SMILES,"activity at 1 h, 1 μM"
1,"COc1cc(C(O)C(CO)Oc2ccc(/C=C\CO)cc2OC)ccc1O (single isomer, unassigned; (-)) [zhang 779, (−)-Threo-guaiacylglycerol-8-O-4′-(coniferyl alcohol) ether]",> 90%

# Same assay, conditions: recombinant enzyme
row,SMILES,% of Control Indication Activity (Mean)
1,C=C1CC[C@@H]2[C@](C)(CO)[C@H](O)CC[C@@]2(C)[C@@H]1/C=C/C1=CCOC1=O [Dehydroandrographolide],> 90

# Same assay, conditions: recombinant enzyme, pH 7.4
row,SMILES,activity
1,CN1[C@@H]2CC[C@H]1C[C@@H](OC(=O)C(CO)c1ccccc1)C2 (stereo partly drawn) [Atropine Sulfate],> 90%
2,CN[C@@H](C)[C@H](O)c1ccccc1 [Ephedrine],> 90%

# Same assay, conditions: recombinant enzyme, pH 7.4; 1 μM active ingredient, Rh CYP1A2-mediated phenacetin O-deethylation, test dataset of 202 herb ingredients; read-out: % of Control Indication Activity (Mean)
SMILES,"activity at 1 h, 1 μM",activity
CCN1C[C@]2(COC)[C@H](O)C[C@H](OC)[C@@]34[C@@H]5C[C@@]6(O)[C@H](OC(=O)c7ccccc7)[C@@H]5[C@@](OC(C)=O)([C@@H]([C@H](OC)[C@H]23)[C@@H]14)[C@@H](O)[C@@H]6OC [Aconitine],> 90%,–
N#C[C@H](O[C@@H]1O[C@H](CO[C@@H]2O[C@H](CO)[C@@H](O)[C@H](O)[C@H]2O)[C@@H](O)[C@H](O)[C@H]1O)c1ccccc1 [Amygdalin],–,> 90%
COc1ccc(C=O)cc1 [Anisaldehyde],–,> 90%
COC(=O)C1=CCCN(C)C1 [Arecoline],–,> 90%
COc1cccc2c1cc([N+](=O)[O-])c1c(C(=O)O)cc3c(c12)OCO3 [Aristolochic Acid],> 90%,–
CC(C)(C)[C@]1(O)CC2OC(=O)CC23C(=O)OC2OC(=O)[C@H](O)C231 (stereo partly drawn) [Bilobalide],> 90%,–
C[C@@]12C(=O)OC(=O)[C@]1(C)[C@H]1CC[C@@H]2O1 [Cantharidin],> 90%,–
CC1=C2C[C@H]3[C@@H](CC=C4C[C@@H](O)CC[C@@]43C)[C@@H]2CC[C@]12O[C@@H]1C[C@H](C)CN[C@H]1[C@H]2C [Cyclopamine],> 90%,–
OCc1ccc(O[C@@H]2O[C@H](CO)[C@@H](O)[C@H](O)[C@H]2O)cc1 [Gastrodin],–,> 90%
COC(=O)C1=CO[C@@H](O[C@@H]2O[C@H](CO)[C@@H](O)[C@H](O)[C@H]2O)[C@@H]2C(CO)=CC[C@H]12 [Geniposide],–,> 90%
C[C@@H]1C(=O)O[C@H]2C[C@@]34[C@H]5C[C@@H](C(C)(C)C)[C@]36[C@@H](OC(=O)[C@@H]6O)O[C@@]4(C(=O)O5)[C@]21O [Ginkgolide A],–,> 90%
